Our source for the DC50 values is patent US12310975B2, “Modulators of BCL6 proteolysis and associated methods of use” (Arvinas Operations, Inc., priority 2019, dated 2025).

The target in the test is BCL6 (Homo sapiens (Human), UniProt P41182). As to the kind of experiment: Immunofluorescence high content imaging of BCL6 degradation in T47D cells. In kind it is cell-based. The conditions noted are these: class symbols A-D, read-out: EC50 (nM)*. The essentials:
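T47D cells were treated for 3 days at 37 °C with 11-point 3-fold dilutions of bifunctional degrader (final top 0.1 or 1 μM). BCL6 was detected by immunofluorescence after PFA fixation, with Hoechst and cell mask counterstains, and imaged at 10×, 4 fields/well.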
For `CNC(=O)COc1cc2cc(Nc3nc(N4CCC(c5cn(CCOCCOCCOCCOc6ccc7c(c6)C(=O)N(C6CCC(=O)NC6=O)C7=O)nn5)CC4)ncc3Cl)ccc2n(C)c1=O` (centres unmarked) [compound 129, 2-((6-((5-chloro-2-(4-(1-(2-(2-(2-(2-((2-(2,6-dioxopiperidin-3-yl)-1,3-dioxoisoindolin-5-yl)oxy)ethoxy)ethoxy)ethoxy)ethyl)-1H-1,2,3-triazol-4-yl)piperidin-1-yl)pyrimidin-4-yl)amino)-1-methyl-2-oxo-1,2-dihydroquinolin-3-yl)oxy)-N-methylacetamide], the DC50 was more than 100 nM. As for `CNC(=O)COc1cc2cc(Nc3nc(N4CCC(Cc5cn(CCOCCOCCOc6ccc7c(c6)C(=O)N(C6CCC(=O)NC6=O)C7=O)nn5)CC4)ncc3Cl)ccc2n(C)c1=O` (centres unmarked) [compound 130, 2-((6-((5-chloro-2-(4-((1-(2-(2-(2-((2-(2,6-dioxopiperidin-3-yl)-1,3-dioxoisoindolin-5-yl)oxy)ethoxy)ethoxy)ethyl)-1H-1,2,3-triazol-4-yl)methyl)piperidin-1-yl)pyrimidin-4-yl)amino)-1-methyl-2-oxo-1,2-dihydroquinolin-3-yl)oxy)-N-methylacetamide], the DC50 is more than 100 nM.

As to `CNC(=O)COc1cc2cc(Nc3nc(N4CCC(Cc5cn(CCOCCOCCOCCOc6ccc7c(c6)C(=O)N(C6CCC(=O)NC6=O)C7=O)nn5)CC4)ncc3Cl)ccc2n(C)c1=O` (centres unmarked) [compound 131, 2-((6-((5-chloro-2-(4-((1-(2-(2-(2-(2-((2-(2,6-dioxopiperidin-3-yl)-1,3-dioxoisoindolin-5-yl)oxy)ethoxy)ethoxy)ethoxy)ethyl)-1H-1,2,3-triazol-4-yl)methyl)piperidin-1-yl)pyrimidin-4-yl)amino)-1-methyl-2-oxo-1,2-dihydroquinolin-3-yl)oxy)-N-methylacetamide], the DC50 is more than 100 nM.

For the compound `CNC(=O)COc1cc2cc(Nc3nc(N4CCC(Cc5cn(CCOCCOCCOCCOCCOc6ccc7c(c6)C(=O)N(C6CCC(=O)NC6=O)C7=O)nn5)CC4)ncc3Cl)ccc2n(C)c1=O` (centres unmarked) [compound 132, 2-((6-((5-chloro-2-(4-((1-(14-((2-(2,6-dioxopiperidin-3-yl)-1,3-dioxoisoindolin-5-yl)oxy)-3,6,9,12-tetraoxatetradecyl)-1H-1,2,3-triazol-4-yl)methyl)piperidin-1-yl)pyrimidin-4-yl)amino)-1-methyl-2-oxo-1,2-dihydroquinolin-3-yl)oxy)-N-methylacetamide], the DC50 was more than 100 nM. For `CNC(=O)COc1cc2cc(Nc3nc(N4CCC(Cc5cn(CCOCCOCC(=O)N[C@H](C(=O)N6C[C@H](O)C[C@H]6C(=O)N[C@@H](C)c6ccc(-c7scnc7C)cc6)C(C)(C)C)nn5)CC4)ncc3Cl)ccc2n(C)c1=O` [compound 133, (2S,4R)-1-((S)-2-(2-(2-(2-(4-((1-(5-chloro-4-((1-methyl-3-(2-(methylamino)-2-oxoethoxy)-2-oxo-1,2-dihydroquinolin-6-yl)amino)pyrimidin-2-yl)piperidin-4-yl)methyl)-1H-1,2,3-triazol-1-yl)ethoxy)ethoxy)acetamido)-3,3-dimethylbutanoyl)-4-hydroxy-N-((S)-1-(4-(4-methylthiazol-5-yl)phenyl)ethyl)pyrrolidine-2-carboxamide] the value was more than 100 nM; for `CNC(=O)COc1cc2cc(Nc3nc(N4CCC(OCCOCCOCCOCCOc5ccccc5Oc5ccc6c(c5)CN(C5CCC(=O)NC5=O)C6=O)CC4)ncc3Cl)ccc2n(C)c1=O` (centres unmarked) [compound 134, 2-((6-((5-chloro-2-(4-(2-(2-(2-(2-(2-((2-(2,6-dioxopiperidin-3-yl)-1-oxoisoindolin-5-yl)oxy)phenoxy)ethoxy)ethoxy)ethoxy)ethoxy)piperidin-1-yl)pyrimidin-4-yl)amino)-1-methyl-2-oxo-1,2-dihydroquinolin-3-yl)oxy)-N-methylacetamide], more than 100 nM. Take `CNC(=O)COc1cc2cc(Nc3nc(N4CCC(OCCOCCOCCOCc5ccc(Oc6ccc7c(c6)CN(C6CCC(=O)NC6=O)C7=O)cc5)CC4)ncc3Cl)ccc2n(C)c1=O` (centres unmarked) [compound 135, 2-((6-((5-chloro-2-(4-(2-(2-(2-((4-((2-(2,6-dioxopiperidin-3-yl)-1-oxoisoindolin-5-yl)oxy)benzyl)oxy)ethoxy)ethoxy)ethoxy)piperidin-1-yl)pyrimidin-4-yl)amino)-1-methyl-2-oxo-1,2-dihydroquinolin-3-yl)oxy)-N-methylacetamide]: the DC50 is more than 100 nM.

With `CNC(=O)COc1cc2cc(Nc3nc(N4CCC(OCc5ccccc5OCCCCOCCOCCOc5ccc6c(c5)CN(C5CCC(=O)NC5=O)C6=O)CC4)ncc3Cl)ccc2n(C)c1=O` (centres unmarked) [compound 136, 2-((6-((5-chloro-2-(4-((2-(4-(2-(2-((2-(2,6-dioxopiperidin-3-yl)-1-oxoisoindolin-5-yl)oxy)ethoxy)ethoxy)butoxy)benzyl)oxy)piperidin-1-yl)pyrimidin-4-yl)amino)-1-methyl-2-oxo-1,2-dihydroquinolin-3-yl)oxy)-N-methylacetamide], the DC50 is more than 100 nM.

In the case of `CNC(=O)COc1cc2cc(Nc3nc(N4CCC(OCCCOc5ccc6c(c5)CN(C5CCC(=O)NC5=O)C6=O)CC4)ncc3Cl)ccc2n(C)c1=O` (centres unmarked) [compound 139, 2-((6-((5-chloro-2-(4-(3-((2-(2,6-dioxopiperidin-3-yl)-1-oxoisoindolin-5-yl)oxy)propoxy)piperidin-1-yl)pyrimidin-4-yl)amino)-1-methyl-2-oxo-1,2-dihydroquinolin-3-yl)oxy)-N-methylacetamide], the DC50 lay within 50 to 100 nM. For `CNC(=O)COc1cc2cc(Nc3nc(N4CCC(OCCCOCCCOc5ccc6c(c5)CN(C5CCC(=O)NC5=O)C6=O)CC4)ncc3Cl)ccc2n(C)c1=O` (centres unmarked) [compound 140, 2-((6-((5-chloro-2-(4-(3-(3-((2-(2,6-dioxopiperidin-3-yl)-1-oxoisoindolin-5-yl)oxy)propoxy)propoxy)piperidin-1-yl)pyrimidin-4-yl)amino)-1-methyl-2-oxo-1,2-dihydroquinolin-3-yl)oxy)-N-methylacetamide] the value was more than 100 nM; for `CNC(=O)COc1cc2cc(Nc3nc(N4CCC(OCCCOc5cc(-c6scnc6C)ccc5CNC(=O)[C@@H]5C[C@@H](O)CN5C(=O)C(c5cc(C)no5)C(C)C)CC4)ncc3Cl)ccc2n(C)c1=O` (stereo partly drawn) [compound 141, (2S,4R)-N-(2-(3-((1-(5-chloro-4-((1-methyl-3-(2-(methylamino)-2-oxoethoxy)-2-oxo-1,2-dihydroquinolin-6-yl)amino)pyrimidin-2-yl)piperidin-4-yl)oxy)propoxy)-4-(4-methylthiazol-5-yl)benzyl)-4-hydroxy-1-(3-methyl-2-(3-methylisoxazol-5-yl)butanoyl)pyrrolidine-2-carboxamide], more than 100 nM; for `CNC(=O)COc1cc2cc(Nc3nc(N4CCC(OCCCCOc5ccc6c(c5)CN(C5CCC(=O)NC5=O)C6=O)CC4)ncc3Cl)ccc2n(C)c1=O` (centres unmarked) [compound 142, 2-((6-((5-chloro-2-(4-(4-((2-(2,6-dioxopiperidin-3-yl)-1-oxoisoindolin-5-yl)oxy)butoxy)piperidin-1-yl)pyrimidin-4-yl)amino)-1-methyl-2-oxo-1,2-dihydroquinolin-3-yl)oxy)-N-methylacetamide], more than 100 nM. For `CNC(=O)COc1cc2cc(Nc3nc(N4CCC(OCCN5CCC(N6CCC(OCC#Cc7ccc8c(c7)CN(C7CCC(=O)NC7=O)C8=O)CC6)CC5)CC4)ncc3Cl)ccc2n(C)c1=O` (centres unmarked) [compound 143, 2-((6-((5-chloro-2-(4-(2-(4-((3-(2-(2,6-dioxopiperidin-3-yl)-1-oxoisoindolin-5-yl)prop-2-yn-1-yl)oxy)-[1,4′-bipiperidin]-1′-yl)ethoxy)piperidin-1-yl)pyrimidin-4-yl)amino)-1-methyl-2-oxo-1,2-dihydroquinolin-3-yl)oxy)-N-methylacetamide] the value was 10 to 50 nM; for `CNC(=O)COc1cc2cc(Nc3nc(N4CCC(OCCCOCCCOc5cc(-c6scnc6C)ccc5CNC(=O)[C@@H]5C[C@@H](O)CN5C(=O)C(c5cc(C)no5)C(C)C)CC4)ncc3Cl)ccc2n(C)c1=O` (stereo partly drawn) [compound 144, (2S,4R)-N-(2-(3-(3-((1-(5-chloro-4-((1-methyl-3-(2-(methylamino)-2-oxoethoxy)-2-oxo-1,2-dihydroquinolin-6-yl)amino)pyrimidin-2-yl)piperidin-4-yl)oxy)propoxy)propoxy)-4-(4-methylthiazol-5-yl)benzyl)-4-hydroxy-1-(3-methyl-2-(3-methylisoxazol-5-yl)butanoyl)pyrrolidine-2-carboxamide], more than 100 nM; for `CNC(=O)COc1cc2cc(Nc3nc(N4CCC(OCCOCCOCCCOCCCOc5ccc6c(c5)CN(C5CCC(=O)NC5=O)C6=O)CC4)ncc3Cl)ccc2n(C)c1=O` (centres unmarked) [compound 145, 2-((6-((5-chloro-2-(4-(2-(2-(3-(3-((2-(2,6-dioxopiperidin-3-yl)-1-oxoisoindolin-5-yl)oxy)propoxy)propoxy)ethoxy)ethoxy)piperidin-1-yl)pyrimidin-4-yl)amino)-1-methyl-2-oxo-1,2-dihydroquinolin-3-yl)oxy)-N-methylacetamide], 50 to 100 nM. Next, `CNC(=O)COc1cc2cc(Nc3nc(N4CCC(OCCOCCOCCCOc5ccc6c(c5)CN(C5CCC(=O)NC5=O)C6=O)CC4)ncc3Cl)ccc2n(C)c1=O` (centres unmarked) [compound 146, 2-((6-((5-chloro-2-(4-(2-(2-(3-((2-(2,6-dioxopiperidin-3-yl)-1-oxoisoindolin-5-yl)oxy)propoxy)ethoxy)ethoxy)piperidin-1-yl)pyrimidin-4-yl)amino)-1-methyl-2-oxo-1,2-dihydroquinolin-3-yl)oxy)-N-methylacetamide]: more than 100 nM; `CNC(=O)COc1cc2cc(Nc3nc(N4CCC(OCCOCCCOCCCOc5ccc6c(c5)CN(C5CCC(=O)NC5=O)C6=O)CC4)ncc3Cl)ccc2n(C)c1=O` (centres unmarked) [compound 147, 2-((6-((5-chloro-2-(4-(2-(3-(3-((2-(2,6-dioxopiperidin-3-yl)-1-oxoisoindolin-5-yl)oxy)propoxy)propoxy)ethoxy)piperidin-1-yl)pyrimidin-4-yl)amino)-1-methyl-2-oxo-1,2-dihydroquinolin-3-yl)oxy)-N-methylacetamide]: more than 100 nM.
